13 molecules from PMC8224385, “X-ray screening identifies active site and allosteric inhibitors of SARS-CoV-2 main protease” (Science (New York, N.y.), 2021) can be followed below.

In data set [1] the test system is SARS-CoV-2. Briefly: microbe, parasite or virus in culture. Type of data set: cell-based. The note with it: for reduction in infectious particles / antiviral activity (in words): SARS-CoV-2, Vero E6 cells; for reduction in infectious particles: compounds considered antivirally active.
Data set [2] can be described thus: in vitro. The note with it: African green monkey.
Data set [3] is described as follows: Cell viability of Vero E6 cells (CCK-8 method). As to conditions: African green monkey. A general note: Tetrazolium dyes change colour on reduction, which living cells bring about.
Where [4] appears, read: Severe acute respiratory syndrome coronavirus 2, Vero C1008, read-out: EC50 for the viral titer reduction.
The mark [5] stands for this setting: Severe acute respiratory syndrome coronavirus 2, Vero C1008, SARS-CoV-2 infectious particles, Vero E6 cells, immunofocus assay, read-out: EC50 for the viral titer reduction.

Counter-ions that a name gives are not always drawn. Like-named read-outs stand apart in the source and are kept apart here.

Take `O=C(NC1CCNCC1)c1n[nH]cc1NC(=O)c1c(Cl)cccc1Cl` [AT7519, N-(4-piperidinyl)-4-(2,6-dichlorobenzoylamino)-1H-pyrazole-3-carboxamide]: the “reduction in infectious particles” value in data set [1] is no less than 100 fold. Also, the concentration for a half-maximal effect (EC50) in data set [1] (setting [4]) worked out at 25.2 µM.
Consider `CCc1ccc(Cc2ccc3c(c2)[C@]2(OC3)O[C@H](CO)[C@@H](O)[C@H](O)[C@H]2O)cc1` [tofogliflozin], for which, in data set [1], the “antiviral activity (in words)” value is “inactive”.
For `Cc1ccc(C(=O)C(C)CN2CCCCC2)cc1` (centres unmarked) [tolperisone], in data set [2], the CC50 was greater than 100 µM. In addition, the “reduction in infectious particles” value in data set [1] is listed as no less than 100 fold. In addition, the EC50 in data set [1] (setting [5]) amounted to 19.2 µM.
For `CCc1cc(O)c(Oc2ccc(C(N)=O)cc2F)cc1F` [MUT056399], in that order: greater than 100 µM, no less than 100 fold and 38.2 µM.
For `CCOc1cc2ncc(C#N)c(Nc3ccc(F)c(Cl)c3)c2cc1NC(=O)/C=C/CN(C)C` [pelitinib], in that order: 14 µM, no less than 100 fold and 1.25 µM.
As to `O=C1c2ccccc2CCC1CNCCc1ccc(O)cc1` (stereo not drawn) [HEAT, 2-[β-(4-hydroxyphenyl)-ethylaminomethyl]-tetralone], the CC50 in data set [2] amounted to 55.4 µM. Further, the EC50 in data set [1] (setting [5]) is 24.1 µM.
With `O=c1n(CC2CO2)c(=O)n(CC2CO2)c(=O)n1CC1CO1` (centres unmarked) [triglycidyl isocyanurate], in data set [1], the “reduction in infectious particles” value is listed as no less than 100 fold. Also, the EC50 in data set [1] (setting [5]) was determined as 30 µM. In addition, the CC50 in data set [3] is greater than 100 µM.
As for `c1ccc2nc(N3CCNCC3)ccc2c1` [quipazine maleate], in data set [2], the CC50 is greater than 100 µM. In addition, the half-maximal effective concentration (EC50) in data set [1] (setting [5]) is 31.6 µM.
As for `CCCC[C@@H](C=O)NC(=O)[C@H](CC(C)C)NC(=O)OCc1ccccc1` [calpeptin], the “reduction in infectious particles” value in data set [1] was no less than 100 fold. The same molecule yielded a CC50 in data set [3] greater than 100 µM.
As to `CC(C)c1ccc2c(c1)C(N1CCN(CCO)CC1)Cc1ccc(F)cc1S2` (centres unmarked) [isofloxythepin], the CC50 in data set [2] amounted to 17 µM. For the same molecule, in data set [1] (setting [5]), the EC50 was 4.8 µM.
Consider `O=C1Nc2ccccc2C2(CCN(CCc3ccc(C(F)(F)F)cc3)CC2)O1` [RS-102895], for which the EC50 in data set [1] (setting [4]) was found to be 19.8 µM. Further, the CC50 in data set [3] came to 55 µM.
For the molecule `CC(C(O)c1ccc(O)cc1)N1CCC(Cc2ccccc2)CC1` (centres unmarked) [ifenprodil], the “reduction in infectious particles” value in data set [1] was no less than 100 fold. Besides, the EC50 in data set [1] (setting [5]) came to 46.9 µM. In addition, the CC50 in data set [3] was greater than 100 µM.
For the molecule PD-168568, in data set [1], the “antiviral activity (in words)” value is “inactive”.

In general, EC50 refers to the concentration needed to bring the measured effect to its halfway point.
